The source of these data is patent US20220315554A1, “COMPOUNDS COMPRISING A […] LIGAND AND USE THEREOF” (priority 2019, published 2022).

In experiment [1] the target is T1, FAP-expressing human WI-38 fibroblasts (Homo sapiens, UniProt Q12884).
T1 construct: FAP-expressing human WI-38 fibroblasts (ECACC) were cultured in EMEM; host or cells: WI-38 human fibroblasts
T1 sequence (Q12884 1-760): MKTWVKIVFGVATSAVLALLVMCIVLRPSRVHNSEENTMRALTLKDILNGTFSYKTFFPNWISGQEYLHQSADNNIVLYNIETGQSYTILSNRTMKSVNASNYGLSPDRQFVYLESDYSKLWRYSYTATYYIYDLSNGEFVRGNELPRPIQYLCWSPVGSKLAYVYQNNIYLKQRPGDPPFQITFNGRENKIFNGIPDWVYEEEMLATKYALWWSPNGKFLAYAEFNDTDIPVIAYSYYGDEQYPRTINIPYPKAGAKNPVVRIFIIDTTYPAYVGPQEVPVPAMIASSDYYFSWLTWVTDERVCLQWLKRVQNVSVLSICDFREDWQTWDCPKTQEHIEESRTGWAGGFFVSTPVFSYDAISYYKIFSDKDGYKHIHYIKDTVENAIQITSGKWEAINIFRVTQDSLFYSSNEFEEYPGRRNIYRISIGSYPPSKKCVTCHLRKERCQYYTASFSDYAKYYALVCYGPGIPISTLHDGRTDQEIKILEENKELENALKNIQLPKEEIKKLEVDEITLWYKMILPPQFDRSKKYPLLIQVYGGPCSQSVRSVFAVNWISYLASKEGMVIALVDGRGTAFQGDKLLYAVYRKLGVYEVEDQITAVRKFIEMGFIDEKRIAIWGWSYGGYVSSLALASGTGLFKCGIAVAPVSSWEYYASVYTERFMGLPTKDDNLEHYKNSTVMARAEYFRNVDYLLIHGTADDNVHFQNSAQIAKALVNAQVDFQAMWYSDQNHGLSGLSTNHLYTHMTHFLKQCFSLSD
Briefly: Competitive FACS binding assay. The conditions noted are these: pIC50 Category (FACS), competition with 3 nM Cy5-labeled compound, 4° C., 1 hour. As for the experimental part: Cells were analyzed in an Attune NxT flow cytometer. […]

A further experiment has as its target T2, Human recombinant FAP (Homo sapiens, UniProt Q12884).
T2 sequence (Q12884 1-760): T1 sequence (Q12884 1-760)
Briefly: FRET-based FAP protease activity assay. It counts as biochemical. More on the design: purchased R&D systems 3715-SE. The following applies: pIC50 Category (Activity), FRET substrate, 37° C.

On to `CCCCCC(=O)N[C@H]1CSCc2cc(CSCCNC(=O)CCC(=O)NCCCOCCOCCOCCCNC(=O)[C@H](CS)NC(=O)[C@H](CC(=O)O)NC(=O)[C@@H](N)CC(=O)O)cc(c2)CSC[C@@H](C(=O)O)NC(=O)[C@H](Cc2ccccc2)NC(=O)[C@H](CCC(N)=O)NC(=O)[C@H]([C@@H](C)O)NC(=O)[C@@H]2CCCN2C(=O)[C@@H]2CCCN2C1=O` [3BP-4302, Hex-[Cys-(tMeBn(H-Asp-Asp-Cys-Ttds-AET))-Pro-Pro-Thr-Gln-Phe-Cys]-OH], for which the IC50 (usually the midpoint of a concentration-inhibition curve) in experiment [1] lay in the range of 0.1 to 0.794 µM; at Human recombinant FAP, 0.01 to 0.0794 µM.

As for `CCCCCC(=O)N[C@H]1CSCc2cc(CSCCNC(=O)[C@H](CS)NC(=O)[C@H](CC(=O)O)NC(=O)[C@@H](N)CC(=O)O)cc(c2)CSC[C@@H](C(=O)O)NC(=O)[C@H](Cc2ccccc2)NC(=O)[C@H](CCC(N)=O)NC(=O)[C@H]([C@@H](C)O)NC(=O)[C@@H]2CCCN2C(=O)[C@@H]2CCCN2C1=O` [3BP-4303, Hex-[Cys-(tMeBn(H-Asp-Asp-Cys-AET))-Pro-Pro-Thr-Gln-Phe-Cys]-OH], the IC50 in experiment [1] lay in the range of 0.1 to 0.794 µM; on Human recombinant FAP, 0.01 to 0.0794 µM.

In the case of `CCCCCC(=O)N[C@H]1CSCc2cc(CSCCNC(=O)CCOCCOCCOCCOCCOCCOCCNC(=O)[C@H](CO)NC(=O)[C@H](CO)NC(=O)[C@H](CO)NC(=O)CS)cc(c2)CSC[C@@H](C(=O)O)NC(=O)[C@H](Cc2ccccc2)NC(=O)[C@H](CCC(N)=O)NC(=O)[C@H]([C@@H](C)O)NC(=O)[C@@H]2CCCN2C(=O)[C@@H]2CCCN2C1=O` [3BP-4308, Hex-[Cys-(tMeBn(H-SAc-Ser-Ser-Ser-Ttds-AET))-Pro-Pro-Thr-Gln-Phe-Cys]-OH], the IC50 (in experiment [1]; at Human recombinant FAP) was 0.01 to 0.0794 µM in each case.

For the compound `CCCCCC(=O)N[C@H]1CSCc2cc(CSCCNC(=O)CN(CCN(CCN(CC(=O)O)CC(=O)O)CC(=O)O)CC(=O)O)cc(c2)CSC[C@@H](C(=O)O)NC(=O)[C@H](Cc2ccccc2)NC(=O)[C@H](CCC(N)=O)NC(=O)[C@H]([C@@H](C)O)NC(=O)[C@@H]2CCCN2C(=O)[C@@H]2CCCN2C1=O` [3BP-4309, Hex-[Cys-(tMeBn(DTPA2-AET))-Pro-Pro-Thr-Gln-Phe-Cys]-OH], the 50% inhibitory concentration (IC50) (in experiment [1]; at Human recombinant FAP) was 0.01 to 0.0794 µM throughout.

For `CCCCCC(=O)N[C@H]1CSCc2cc(CSCCNC(=O)CN3CCN(CC(=O)O)CCN(CC(=O)O)CC3)cc(c2)CSC[C@@H](C(=O)O)NC(=O)[C@H](Cc2ccccc2)NC(=O)[C@H](CCC(N)=O)NC(=O)[C@H]([C@@H](C)O)NC(=O)[C@@H]2CCCN2C(=O)[C@@H]2CCCN2C1=O` [3BP-4310, Hex-[Cys-(tMeBn(NOTA-AET))-Pro-Pro-Thr-Gln-Phe-Cys]-OH], the half-inhibitory concentration (IC50) (in experiment [1]; on Human recombinant FAP) was < 0.01 µM in each case.

For the compound `CCCCCC(=O)N[C@H]1CSCc2cc(CSCCNC(=O)c3ccc(NN)nc3)cc(c2)CSC[C@@H](C(=O)O)NC(=O)[C@H](Cc2ccccc2)NC(=O)[C@H](CCC(N)=O)NC(=O)[C@H]([C@@H](C)O)NC(=O)[C@@H]2CCCN2C(=O)[C@@H]2CCCN2C1=O` [3BP-4342, Hex-[Cys-(tMeBn(H-HYNIC-AET))-Pro-Pro-Thr-Gln-Phe-Cys]-OH], the half-inhibitory concentration (IC50) was 0.01 to 0.0794 µM in experiment [1] and < 0.01 µM on Human recombinant FAP.

Regarding `CCCCCC(=O)N[C@H]1CSCc2cc(CSCCNC(=O)CN3CCN4CCN(CC(=O)O)CCN(CC3)CC(=O)[O][Zn][O]C(=O)C4)cc(c2)CSC[C@@H](C(=O)O)NC(=O)[C@H](Cc2ccccc2)NC(=O)[C@H](CCC(N)=O)NC(=O)[C@H]([C@@H](C)O)NC(=O)[C@@H]2CCCN2C(=O)[C@@H]2CCCN2C1` [3BP-4343, Zink-Complex of Hex-[Cys(tMeBn(DOTA-AET))-Pro-Pro-Thr-Gln-Phe-Cys]-OH], the half-maximal inhibitory concentration (IC50) (in experiment [1]; at Human recombinant FAP) was < 0.01 µM throughout.

In the case of `CCCCCC(=O)N[C@H]1CSCc2cc(CSCCNC(=O)CCC(=O)NCCCOCCOCCOCCCNC(=O)CN3CCN(CC(=O)O)CCN(CC(=O)O)CC3)cc(c2)CSC[C@@H](C(=O)O)NC(=O)[C@H](Cc2ccccc2)NC(=O)[C@H](CCC(N)=O)NC(=O)[C@H]([C@@H](C)O)NC(=O)[C@@H]2CCCN2C(=O)[C@@H]2CCCN2C1=O` [3BP-4344, Hex-[Cys-(tMeBn(NOTA-Ttds-AET))-Pro-Pro-Thr-Gln-Phe-Cys]-OH], the IC50 (in experiment [1]; at Human recombinant FAP) was < 0.01 µM in each case.

With `CCCCCC(=O)N[C@H]1CSCc2cc(CSCCNC(=O)CCC(=O)NCCCOCCOCCOCCCNC(=O)CN(CCN(CCN(CC(=O)O)CC(=O)O)CC(=O)O)CC(=O)O)cc(c2)CSC[C@@H](C(=O)O)NC(=O)[C@H](Cc2ccccc2)NC(=O)[C@H](CCC(N)=O)NC(=O)[C@H]([C@@H](C)O)NC(=O)[C@@H]2CCCN2C(=O)[C@@H]2CCCN2C1=O` [3BP-4352, Hex-[Cys-(tMeBn(DTPA2-Ttds-AET))-Pro-Pro-Thr-Gln-Phe-Cys]-OH], the 50% inhibitory concentration (IC50) fell in the range of 0.1 to 0.794 µM in experiment [1] and 0.01 to 0.0794 µM on Human recombinant FAP.

As for `CCCCCC(=O)N[C@H]1CSCc2cc(CSCCNC(=O)CCOCCOCCOCCOCCOCCOCCNC(=O)CN(CCN(CCN(CC(=O)O)CC(=O)O)CC(=O)O)CC(=O)O)cc(c2)CSC[C@@H](C(=O)O)NC(=O)[C@H](Cc2ccccc2)NC(=O)[C@H](CCC(N)=O)NC(=O)[C@H]([C@@H](C)O)NC(=O)[C@@H]2CCCN2C(=O)[C@@H]2CCCN2C1=O` [3BP-4353, Hex-[Cys-(tMeBn(DTPA2-PEG6-AET))-Pro-Pro-Thr-Gln-Phe-Cys]-OH], the IC50 (in experiment [1]; on Human recombinant FAP) was 0.01 to 0.0794 µM throughout.

Turning to `CCCCCC(=O)N[C@H]1CSCc2cc(CSCCNC(=O)CCCC(=O)Nc3ccc(C[C@H](CN(CCN(CC(=O)O)CC(=O)O)CC(=O)O)N(CC(=O)O)CC(=O)O)cc3)cc(c2)CSC[C@@H](C(=O)O)NC(=O)[C@H](Cc2ccccc2)NC(=O)[C@H](CCC(N)=O)NC(=O)[C@H]([C@@H](C)O)NC(=O)[C@@H]2CCCN2C(=O)[C@@H]2CCCN2C1=O` [3BP-4366, Hex-[Cys-(tMeBn(DTPABzl-Glutar-AET))-Pro-Pro-Thr-Gln-Phe-Cys]-OH], the IC50 (in experiment [1]; on Human recombinant FAP) was 0.1 to 0.794 µM in each case.

With `CCCCCC(=O)N[C@H]1CSCc2cc(CSCCNC(=O)CN3CCN4CCN5CCN(CC3)CC(=O)[O][Lu]([O]C(=O)C4)[O]C(=O)C5)cc(c2)CSC[C@@H](C(=O)N[C@@H](CC(=O)O)C(=O)NCCCC(=O)NC(CCCNC(=N)N)C(=O)NCCCOCCOCCOCCCNC(=O)CCC(=O)NC(CCCCNC(=O)c2ccc(-c3c4ccc(=N)c(S(=O)(=O)O)c-4oc4c(S(=O)(=O)O)c(N)ccc34)c(C(=O)O)c2)C(N)=O)NC[C@H](Cc2ccccc2)NC(=O)[C@H](CCC(N)=O)NC(=O)C([C@@H](C)O)NC(=O)[C@@H]2CCCN2C(=O)[C@@H]2CCCC2C1=O` (stereo partly drawn) [3BP-4372, Hex-[Cys(tMeBn(LuDOTA-AET))-Pro-Pro-Thr-Gln-Phe-Cys]-Asp-Gab-Arg-Ttds-Lys(AF488)-NH2], the concentration for half-maximal inhibition (IC50) (in experiment [1]; at Human recombinant FAP) was < 0.01 µM throughout.

Regarding `CCCCCC(=O)N[C@H]1CSCc2cc(CSCCNC(=O)CN3CCN4CCN5CCN(CC3)CC(=O)[O][Lu]([O]C(=O)C4)[O]C(=O)C5)cc(c2)CSC[C@@H](C(=O)N[C@@H](CC(=O)O)C(=O)NCCCC(=O)N[C@@H](CCCNC(=N)N)C(=O)NCCCOCCOCCOCCCNC(=O)CCC(=O)NCCCOCCOCCOCCCNC(=O)CCC(=O)NCCCOCCOCCOCCCNC(=O)CCC(=O)N[C@@H](CCCCNC(=O)c2ccc(-c3c4ccc(=N)c(S(=O)(=O)O)c-4oc4c(S(=O)(=O)O)c(N)ccc34)c(C(=O)O)c2)C(N)=O)NC[C@H](Cc2ccccc2)NC(=O)[C@H](CCC(N)=O)NC(=O)C([C@@H](C)O)NC(=O)[C@@H]2CCCN2C(=O)[C@@H]2CCCC2C1=O` (stereo partly drawn) [3BP-4373, Hex-[Cys(tMeBn(LuDOTA-AET))-Pro-Pro-Thr-Gln-Phe-Cys]-Asp-Gab-Arg-Ttds-Ttds-Ttds-Lys(AF488)-NH2], the IC50 is 0.01 to 0.0794 µM in experiment [1] and < 0.01 µM on Human recombinant FAP.

Regarding `CCCCCC(=O)N[C@H]1CSCc2cc(CSCCNC(=O)CCC(=O)NCCCOCCOCCOCCCNC(=O)c3ccc(NN)nc3)cc(c2)CSC[C@@H](C(=O)O)NC(=O)[C@H](Cc2ccccc2)NC(=O)[C@H](CCC(N)=O)NC(=O)[C@H]([C@@H](C)O)NC(=O)[C@@H]2CCCN2C(=O)[C@@H]2CCCN2C1=O` [3BP-4376, Hex-[Cys-(tMeBn(H-HYNIC-Ttds-AET))-Pro-Pro-Thr-Gln-Phe-Cys]-OH], the IC50 (in experiment [1]; on Human recombinant FAP) was < 0.01 µM in each case.

Consider `CCCCCC(=O)N[C@H]1CSCc2cc(CSCCNC(=O)CN3CCN(CC(=O)O)CCN(CC(=O)O)Cc4cccc(n4)C3)cc(c2)CSC[C@@H](C(=O)O)NC(=O)[C@H](Cc2ccccc2)NC(=O)[C@H](CCC(N)=O)NC(=O)[C@H]([C@@H](C)O)NC(=O)[C@@H]2CCCN2C(=O)[C@@H]2CCCN2C1=O` [3BP-4379, Hex-[Cys-(tMeBn(PCTA-AET))-Pro-Pro-Thr-Gln-Phe-Cys]-OH], for which the IC50 (in experiment [1]; on Human recombinant FAP) was < 0.01 µM in each case.
